{"source": "patent US12240870B2", "about": "“Sequencing method for CAR T cell therapy” (Purdue Research Foundation, priority 2018, dated 2025)", "tested_on": "THP1-FRβ xenografts", "experiment": "THP1-FRβ AML intravenous xenograft, E2 CAR-T cells plus EC17", "type": "in vivo, NSG mice", "experimental": "Panel A: Schematic diagrams to show dose scheduling of EC17 plus unsorted EGFRt CAR-T cells (˜6 million, day 0) in NSG mice with 1-day-old intravenous THP1-FRβ xenografts. Starting 3 days after CAR-T cell injection, EC17 was dosed in 3 different ways: EC17 SIW 500 nmol/kg ([…] on days 3, 10, 17, 24, 31, and 38), EC17 TIW 5/50/500 nmol/kg (3 repeats of 5/50/500 nmol/kg on Monday/Wednesday/Friday followed by a 9-day break, i.e. on days 3/5/7, 17/19/21 and 31/33/35), or EC17 M/Th/M_dose escalation on Monday/Thursday/Monday (3 escalation cycles at 5/10/100 nmol/kg in Cycle 1, 5/30/300 nmol/kg in Cycle 2, and 5/50/500 nmol/kg in Cycle 3, i.e. on days 3/6/10, 17/20/24, and 31/34/38). Panel B: Measurements of change in body weight (n=5). Panel C: Circulating CAR-T cells as human CD3ε+ EGFRt+ events found per 100 μL of mouse whole blood on a logarithmic scale on day 31. Panel D: Left bar graph: circulating tumor cells (GFP+) per 100 μL of whole blood in all cohorts measured at the end of study (day 39); Middle bar graph: THP1-FRβ infiltrated liver weights representing liver metastatic burden; Right bar graph: total tumor weights of all non-liver macrometastases. Panel E: Flow cytometric analysis of T-cell exhaustion markers, PD1, LAG3, TIM3, on preinfusion CAR-T cell product (triple-negative) and tumor-infitrating CAR-T cells isolated from liver metastases. A cardinal feature of fully exhausted T cells is co-expression of multiple inhibitory receptor markers (i.e. triple-positive).\nOne objective of this E2-CAR T-cell study was to test EC17/E2 CAR-T cell activity and related toxicity (e.g. sCRS) using multiple dosing regimens starting 3 days after CAR-T infusion. Three different EC17 dosing regimens include (a) once-a-week (SIW) at 500 nmol/kg, (b) “TIW-like” at 5, 50, and 500 nmol/kg on Monday/Wednesday/Friday with 9-day intervals, and (c) “TIW-like” at […] on Monday/Thursday/Monday with 7-day intervals.\nTHP-1-FRβ AML tumor cells were grown in folate-deficient RPMI 1640 with 5-10% FBS at 37° C. in a 5% CO2 humidified atmosphere. THP-1-FRβ tumor cells in serum-free folate-deficient RPMI1640 medium were i.v. injected at 5×10^6 cells per animal.\nAnti-FITC E2 scFv-CAR T cells were frozen in a T-cell freezing medium. Upon arrival, vials of frozen CAR-T cells were immediately stored at −80° C. The CAR-T cells were quickly thawed at 37° C., washed twice with CAR-T cell culture medium, and used for animal injection at 6 million viable EGFRt+ E2 CAR-T cells (CD4/CD8 at ˜1:1) per animal. A small aliquot was taken on the day infusion for flow cytometric analysis of E2-CAR T-cell phenotypes.\nEC17 and bis-EDA-FITC dosing solutions were prepared when dosing began by weighing appropriate amounts of each compound, reconstituting in PBS, pH 7.4, sterile filtering the drug solution through a 0.22 μm PVDF syringe filter, and freezing aliquots for each day of dosing at −20° C.\nAll EC17 doses were given towards the end of day (3-4 PM) to allow potential CRS (cytokine release syndrome) to develop overnight. In the following morning, animals were scored according to a CRS grading system (see below).\nDaily body weight measurement on the days after EC17 dose is required. Attention was given to gross animal morphology and behavior. Euthanasia was performed if mice lose a lot of weight in a short duration or when mice are approaching moribund conditions per CRS grading system or neurotoxicity.\nWhole blood cell analysis: Plasma was removed from predetermined volumes of whole EDTA treated blood and RBCs were lysed with RBC lysis solution. […]", "note": "Entries after “also recorded” stand apart in the source; their conditions may differ.", "data": [{"compound": "Nc1nc2ncc(CNc3ccc(C(=O)N[C@@H](CCC(=O)NCCNC(=S)Nc4ccc(-c5c6ccc(=O)cc-6oc6cc(O)ccc56)c(C(=O)O)c4)C(=O)O)cc3)nc2c(=O)[nH]1", "note": "[EC17, FA-(γ)-ethylenediamine-FITC]", "values": [{"measurement": "non-liver macrometastases", "setting": "EC17 SIW 500 nmol/kg", "value": "successfully controlled non-liver macrometastases"}, {"measurement": "CRS grade", "setting": "EC17 SIW 500 nmol/kg (Cohort 3)", "value": "1-2"}, {"measurement": "non-liver macrometastases", "setting": "EC17 TIW 5/50/500 nmol/kg on/off", "value": "successfully controlled non-liver macrometastases"}, {"measurement": "overall anti-tumor activity / THP1-FRβ tumor burden, comparison of regimens", "setting": "EC17 TIW 5/50/500 nmol/kg on/off (Cohort 4)", "value": "best anti-tumor activity among the three different EC17 dose schedules; also recorded: trended to be the best regimen for reducing overall THP1-FRβ tumor burden"}, {"measurement": "circulating THP1-FRβ tumor cells (GFP+) per 100 μL whole blood", "setting": "all three EC17 dosing regimens, day 39", "value": "significant reduction in circulating THP1 cell burden; also recorded: effectively reduced circulating THP1-FRβ tumor cells in the blood"}, {"measurement": "severe CRS (grades ≥3)", "setting": "any EC17 treated cohort (SIW, TIW, M/Th/M)", "value": "no severe CRS"}, {"measurement": "body weight loss", "setting": "~6 million E2 CAR-T + EC17 SIW 500 nmol/kg (Cohort 3)", "value": "EC17 dose-dependent body weight loss after each EC17 dose; also recorded: some body weight loss"}, {"measurement": "body weight loss", "setting": "~6 million E2 CAR-T + EC17 TIW 5/50/500 nmol/kg M/W/F, 9-day break (Cohort 4)", "value": "mildest body weight loss among three treatment groups; also recorded: least body weight loss"}]}]}
